Assay results taken from ChEMBL document CHEMBL1150375, “Novel inhibitors of the v-raf murine sarcoma viral oncogene homologue B1 (BRAF) based on a 2,6-disubstituted pyrazine scaffold” (J Med Chem, 2008).

System: not listed separately
Assay: Selectivity ratio of IC50 for CRAF to IC50 for human BRAF V600E mutant

| Ratio IC50 | Structure (SMILES) |
| --- | --- |
| 5 | CC(=O)Nc1ccc(Oc2cncc(Nc3cccc(-c4cnco4)c3)n2)c2ccccc12 |
| 11 | CC(=O)Nc1cccc2c(Oc3cncc(Nc4cccc(-c5cnco5)c4)n3)cccc12 |
| 36 | COc1cc(Nc2cncc(Oc3ccc(NC(C)=O)c4ccccc34)n2)cc(OC)c1OC |
| 34 | COc1cc(Nc2cncc(-c3ccc(C(N)=O)cc3)n2)cc(OC)c1OC |
| > 86 | COc1cc(Nc2cncc(-c3ccc(NC(=O)Nc4ccccc4)cc3)n2)cc(OC)c1OC |

Molecular target: RAF proto-oncogene serine/threonine-protein kinase (Homo sapiens, UniProt P04049)
Assay: Inhibition of CRAF

Chain of RAF proto-oncogene serine/threonine-protein kinase (P04049 whole entry): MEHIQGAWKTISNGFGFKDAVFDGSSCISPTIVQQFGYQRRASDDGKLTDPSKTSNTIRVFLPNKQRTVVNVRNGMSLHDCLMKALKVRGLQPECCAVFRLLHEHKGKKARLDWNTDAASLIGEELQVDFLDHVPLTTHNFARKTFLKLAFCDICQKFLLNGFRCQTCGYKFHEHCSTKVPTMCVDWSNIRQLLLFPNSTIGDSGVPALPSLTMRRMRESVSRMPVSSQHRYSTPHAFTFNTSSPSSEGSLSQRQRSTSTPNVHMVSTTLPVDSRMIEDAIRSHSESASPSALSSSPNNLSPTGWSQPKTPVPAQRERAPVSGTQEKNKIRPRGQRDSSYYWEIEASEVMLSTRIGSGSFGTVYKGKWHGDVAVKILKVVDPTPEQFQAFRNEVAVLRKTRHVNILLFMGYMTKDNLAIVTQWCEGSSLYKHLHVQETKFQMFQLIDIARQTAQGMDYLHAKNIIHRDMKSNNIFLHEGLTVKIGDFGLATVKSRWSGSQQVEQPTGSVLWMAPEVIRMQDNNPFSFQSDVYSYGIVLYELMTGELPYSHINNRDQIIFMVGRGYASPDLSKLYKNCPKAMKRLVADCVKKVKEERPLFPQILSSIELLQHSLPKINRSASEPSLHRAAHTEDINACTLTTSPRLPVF

| IC50 | Structure (SMILES) |
| --- | --- |
| 1.52 µM | CC(=O)Nc1ccc(Oc2cncc(Nc3cccc(-c4cnco4)c3)n2)c2ccccc12 |
| 6.96 µM | CC(=O)Nc1cccc2c(Oc3cncc(Nc4cccc(-c5cnco5)c4)n3)cccc12 |
| 20.3 µM | COc1cc(Nc2cncc(Oc3ccc(NC(C)=O)c4ccccc34)n2)cc(OC)c1OC |
| 38.2 µM | COc1cc(Nc2cncc(-c3ccc(C(N)=O)cc3)n2)cc(OC)c1OC |
| > 100 µM | COc1cc(Nc2cncc(-c3ccc(NC(=O)Nc4ccccc4)cc3)n2)cc(OC)c1OC |

Molecular target: Serine/threonine-protein kinase B-raf (Homo sapiens, UniProt P15056, V600E)
Sequence (P15056 2-766 V600E limits assumed): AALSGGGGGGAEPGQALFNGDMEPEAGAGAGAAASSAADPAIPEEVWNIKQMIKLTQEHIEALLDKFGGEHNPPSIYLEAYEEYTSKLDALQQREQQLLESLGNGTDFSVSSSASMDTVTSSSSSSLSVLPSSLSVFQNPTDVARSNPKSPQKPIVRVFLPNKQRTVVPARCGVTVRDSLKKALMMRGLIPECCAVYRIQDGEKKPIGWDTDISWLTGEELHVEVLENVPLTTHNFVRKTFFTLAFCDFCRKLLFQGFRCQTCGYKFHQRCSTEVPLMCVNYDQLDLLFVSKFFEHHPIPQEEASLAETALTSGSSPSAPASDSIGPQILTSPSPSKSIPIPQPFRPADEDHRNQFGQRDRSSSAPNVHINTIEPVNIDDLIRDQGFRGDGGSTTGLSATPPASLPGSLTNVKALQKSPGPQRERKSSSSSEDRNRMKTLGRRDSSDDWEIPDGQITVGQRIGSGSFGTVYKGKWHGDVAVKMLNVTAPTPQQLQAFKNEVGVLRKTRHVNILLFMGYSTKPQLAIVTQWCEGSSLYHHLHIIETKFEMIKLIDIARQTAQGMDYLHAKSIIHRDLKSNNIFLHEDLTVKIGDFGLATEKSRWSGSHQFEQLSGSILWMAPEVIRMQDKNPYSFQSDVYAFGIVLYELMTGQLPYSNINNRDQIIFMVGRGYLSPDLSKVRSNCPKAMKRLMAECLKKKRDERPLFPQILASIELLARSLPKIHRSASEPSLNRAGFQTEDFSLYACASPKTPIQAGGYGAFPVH
Description: Inhibition of human BRAF V600E mutant expressed in SF9 cells

| Structure (SMILES) | IC50 |
| --- | --- |
| COc1cc(Nc2cncc(Sc3cccc4ccccc34)n2)cc(OC)c1OC | 9.8 µM |
| COc1cc(Nc2cncc(Oc3cccc(Cl)c3)n2)cc(OC)c1OC | 36 µM |
| COc1cc(Nc2cncc(Oc3ccc4c(c3)CCCC4=O)n2)cc(OC)c1OC | 76 µM |
| COc1cc(Nc2cncc(-c3ccc(C=O)cc3)n2)cc(OC)c1OC | 3 µM |
| COc1cc(Nc2cncc(Nc3cccc(NC(C)=O)c3)n2)cc(OC)c1OC | 14 µM |
| COc1cc(Nc2cncc(Oc3cccc4c3CCC4=O)n2)cc(OC)c1OC | 18 µM |
| COc1cc(Nc2cncc(Oc3ccc4ncccc4c3)n2)cc(OC)c1OC | 29 µM |
| COc1cc(Nc2cncc(-c3ccc(CO)cc3)n2)cc(OC)c1OC | 26 µM |
| COc1cc(Nc2cncc(Oc3ccccc3)n2)cc(OC)c1OC | 31 µM |
| COc1cc(Nc2cncc(Oc3ccc4c(c3)/C(=N/O)CC4)n2)cc(OC)c1OC | 86 µM |
| COc1cc(Nc2cncc(Nc3ccc(F)cc3)n2)cc(OC)c1OC | 19 µM |
| COc1cc(Nc2cncc(Oc3ccc(C(C)=O)cc3)n2)cc(OC)c1OC | 34 µM |
| COc1cc(Nc2cncc(Nc3ccccc3)n2)cc(OC)c1OC | 16 µM |
| COc1cc(Nc2cncc(-c3cccc(NC(C)=O)c3)c2)cc(OC)c1OC | 26 µM |
| COc1cc(Nc2cncc(Nc3ccc(O)cc3)n2)cc(OC)c1OC | 4.9 µM |
| COc1cc(Nc2cncc(-c3cccc(O)c3)n2)cc(OC)c1OC | 4 µM |
| COc1cc(Nc2cncc(Oc3ccccc3F)n2)cc(OC)c1OC | 45 µM |
| COc1cc(Nc2cncc(Oc3ccc4c(c3)OC(=O)CC4)n2)cc(OC)c1OC | 44 µM |

| Structure (SMILES) | IC50 |
| --- | --- |
| COc1cc(Nc2cncc(Nc3ccc(NC(C)=O)cc3)n2)cc(OC)c1OC | 16 µM |
| COc1cc(Nc2cncc(Oc3cccc4[nH]ccc34)n2)cc(OC)c1OC | 7.4 µM |
| COc1cc(Nc2cncc(Oc3cccc4c3CCCC4)n2)cc(OC)c1OC | 18 µM |
| COc1cc(Nc2cncc(Oc3ccccc3-c3ccccc3)n2)cc(OC)c1OC | 10 µM |
| COc1cc(Nc2cncc(Oc3ccc4c(c3)CCC4=O)n2)cc(OC)c1OC | 70 µM |
| COc1cc(Nc2cncc(-c3cccc(C#N)c3)n2)cc(OC)c1OC | 9.8 µM |
| COc1cc(Nc2cncc(Oc3cccc(C(C)=O)c3)n2)cc(OC)c1OC | 19 µM |
| COc1cc(Nc2cncc(-c3ccc(O)cc3)n2)cc(OC)c1OC | 18 µM |
| COc1cc(Nc2cncc(Oc3ccc(NC(C)=O)cc3)n2)cc(OC)c1OC | 5.5 µM |
| COc1cc(Nc2cncc(Oc3ccnc4ccccc34)n2)cc(OC)c1OC | 1.5 µM |
| COc1cc(Nc2cncc(-c3ccc(NC(=O)Nc4ccccc4)cc3)n2)cc(OC)c1OC | 1.16 µM |
| COc1cc(Nc2cncc(Oc3cccc4ncccc34)n2)cc(OC)c1OC | 10 µM |
| COc1cc(Nc2cncc(Oc3cccc4ccccc34)n2)cc(OC)c1OC | 1.2 µM |
| COc1cc(Nc2cncc(-c3cccnc3)n2)cc(OC)c1OC | 22 µM |
| COc1cc(Nc2nc(-c3cccc(NC(C)=O)c3)cnc2NC(C)=O)cc(OC)c1OC | > 100 µM |
| COc1cc(Nc2cncc(Nc3cccc(F)c3)n2)cc(OC)c1OC | 12 µM |
| COc1cc(Nc2cncc(Oc3cccc(/C(C)=N/O)c3)n2)cc(OC)c1OC | 11 µM |
| COc1cc(Nc2cncc(Nc3ccncc3)n2)cc(OC)c1OC | 4.7 µM |

Now from value to compound:

| IC50 | Structure (SMILES) |
| --- | --- |
| 56 µM | COc1cc(Nc2cncc(Oc3cccc(F)c3)n2)cc(OC)c1OC |
| > 100 µM | COc1cc(Nc2cncc(Oc3ccc4ccccc4c3)n2)cc(OC)c1OC |
| 3.5 µM | COc1cc(Nc2cncc(-c3cccc(NC(C)=O)c3)n2)cc(OC)c1OC |
| 29 µM | COc1cc(Nc2cncc(Oc3cccc4c3CCCC4=O)n2)cc(OC)c1OC |
| 22 µM | COc1cc(Nc2cncc(Oc3ccc4c(c3)C(=O)CC4)n2)cc(OC)c1OC |
| 0.41 µM | COc1cc(Nc2cncc(Oc3cccc4c(NC(C)=O)cccc34)n2)cc(OC)c1OC |
| 26 µM | COc1cc(Nc2cncc(Oc3ccc(/C(C)=N/O)cc3)n2)cc(OC)c1OC |
| 14 µM | CCOC(=O)c1cccc(-c2cncc(Nc3cc(OC)c(OC)c(OC)c3)n2)c1 |
| 92 µM | COc1cc(Nc2cncc(Oc3ccc4c(c3)CCC/C4=N\O)n2)cc(OC)c1OC |
| 0.31 µM | CC(=O)Nc1ccc(Oc2cncc(Nc3cccc(-c4cnco4)c3)n2)c2ccccc12 |
| 45 µM | COc1cc(Nc2cncc(Oc3cccnc3)n2)cc(OC)c1OC |
| 13 µM | COc1cc(Nc2cncc(Oc3cccc(NC(C)=O)c3)n2)cc(OC)c1OC |
| 0.65 µM | CC(=O)Nc1cccc2c(Oc3cncc(Nc4cccc(-c5cnco5)c4)n3)cccc12 |
| 2.5 µM | CC(=O)Nc1cccc2c(Oc3cncc(Nc4ccc5c(c4)C(=O)OC5)n3)cccc12 |
| 0.56 µM | COc1cc(Nc2cncc(Oc3ccc(NC(C)=O)c4ccccc34)n2)cc(OC)c1OC |
| 1.12 µM | COc1cc(Nc2cncc(-c3ccc(C(N)=O)cc3)n2)cc(OC)c1OC |
| 16 µM | COc1cc(Nc2cncc(Oc3ccncc3)n2)cc(OC)c1OC |
| 2.9 µM | COc1cc(Nc2cncc(-c3ccncc3)n2)cc(OC)c1OC |
| 3.8 µM | COc1cc(Nc2cncc(Oc3cccc4cnccc34)n2)cc(OC)c1OC |
| 1.4 µM | COc1cc(Nc2cncc(Oc3cccc4c3CC/C4=N\O)n2)cc(OC)c1OC |
